Data published in article PMC5545217 (Nature Communications, 2017).
Like-named read-outs stand apart in the source and are kept apart here.

Legend:
M. tuberculosis ATP-PRT [1] = molecular target: T1, M. tuberculosis ATP-PRT (Mycobacterium tuberculosis, UniProt P9WMN1); assay: biochemical
ATP-PRT [2] = molecular target: T2, ATP-PRT (Mycobacterium tuberculosis, UniProt P9WMN1)
ATP-PRT [3] = molecular target: T2, ATP-PRT; assay: Competition saturation transfer difference (STD) NMR; type: binding; conditions: 20 μM ATP-PRT, 400 μM TIH, L-His 0-3000 μM, pH 8.0
Protocol: NMR spectra were recorded at 25 °C on a Bruker Avance-600 spectrometer equipped with a triple resonance cryo-probe and operating at a ^1H frequency of 600 MHz. […] Spectra with on-resonance pre-saturation of the enzyme at 0.8 ppm were recorded with a saturation time of 2 s. An off-resonance control spectrum was recorded with a saturation time of 2 s. Water suppression was achieved by excitation sculpting. Data processing and spectral subtractions were performed using Bruker TopSpin 3.2 software.

M. tuberculosis ATP-PRT [4] = molecular target: T1, M. tuberculosis ATP-PRT; conditions: cited from earlier work
crystal structure = molecular target: the molecule itself; assay: crystal structure

## N[C@@H](Cc1cccs1)C(=O)O [TIH, 3-(2-thienyl)-L-alanine]
M. tuberculosis ATP-PRT [1]; 400 µM L-His plus close to 4 mM TIH
  ATP-PRT activity restored: 100%
M. tuberculosis ATP-PRT [1]; [TIH] 0.25 mM, L-His inhibition pattern, varying ATP
  V max: 0.28 ± 0.01 s⁻¹
M. tuberculosis ATP-PRT [1]; [TIH] 0.8 mM, L-His inhibition pattern, varying ATP
  V max: 0.38 ± 0.01 s⁻¹
M. tuberculosis ATP-PRT [1]; [TIH] 4 mM, L-His inhibition pattern, varying ATP
  V max: 0.76 ± 0.01 s⁻¹
M. tuberculosis ATP-PRT [1]; read-out: ATP-PRT activity increased up to (maximal activation)
  Emax: ≤ 433%
M. tuberculosis ATP-PRT [1]; varying ATP, Eq. 4
  αATP: 1.4 ± 0.2
  βATP: 4.9 ± 0.2
M. tuberculosis ATP-PRT [1]; varying PRPP, Eq. 4
  α (PRPP): 1.1 ± 0.4
  β (PRPP): 4.9 ± 0.5
ATP-PRT [2]; pH 6.8, charge state +28
  Drift time of main ATP-PRT form: 44.2 ms
ATP-PRT [2]; pH 9.0, charge state +28
  Drift time of main ATP-PRT form: 44.1 ms

## Nc1ncnc2c1ncn2[C@@H]1O[C@H](COP(=O)(O)OP(=O)(O)OP(=O)(O)O)[C@@H](O)[C@H]1O [ATP]
M. tuberculosis ATP-PRT [1]; [TIH] 0 mM, L-His inhibition pattern
  K m,ATP: 0.23 ± 0.03 mM
M. tuberculosis ATP-PRT [1]; [TIH] 0.25 mM, L-His inhibition pattern
  K m,ATP: 0.20 ± 0.02 mM
M. tuberculosis ATP-PRT [1]; [TIH] 0.8 mM, L-His inhibition pattern
  K m,ATP: 0.18 ± 0.02 mM
M. tuberculosis ATP-PRT [1]; [TIH] 4 mM, L-His inhibition pattern
  K m,ATP: 0.16 ± 0.02 mM
M. tuberculosis ATP-PRT [1]; activation experiment, unactivated reaction, varying ATP
  K m,ATP: 0.10 ± 0.01 mM

## N[C@@H](Cc1c[nH]cn1)C(=O)O [L-His, L-histidine, reference compound]
M. tuberculosis ATP-PRT [1]
  IC50: 22 ± 4 µM
M. tuberculosis ATP-PRT [1]; 400 µM L-His (20-fold K i)
  ATP-PRT activity at saturating L-His: fully inhibited
M. tuberculosis ATP-PRT [1]; L-His inhibition vs ATP, [TIH] 0 mM, read-out: K i,ATP
  Ki: 20 ± 1 µM
M. tuberculosis ATP-PRT [1]; linear noncompetitive inhibition vs. PRPP, no TIH, read-out: K i,PRPP
  Ki: 16 ± 1 µM
ATP-PRT [2]; pH 6.8, charge state +28
  Drift time of main ATP-PRT form: 44.1 ms
ATP-PRT [2]; pH 9.0, charge state +28
  Drift time of main ATP-PRT form: 44.2 ms
ATP-PRT [3]
  Competition STD NMR outcome: displacement of TIH by L-His
M. tuberculosis ATP-PRT [4]
  Hill number (n H) for L-His inhibition: 1.5

## O=P(O)(O)OC[C@H]1O[C@H](OP(=O)(O)OP(=O)(O)O)[C@H](O)[C@@H]1O [PRPP, 5-phospho-α-D-ribose 1-diphosphate]
M. tuberculosis ATP-PRT [1]; activation experiment, unactivated reaction, varying PRPP
  K m,PRPP: 0.19 ± 0.03 mM

B1: Mycobacterium tuberculosis ATP-phosphoribosyltransferase (enzyme)
chain: MLRVAVPNKGALSEPATEILAEAGYRRRTDSKDLTVIDPVNNVEFFFLRPKDIAIYVGSGELDFGITGRDLVCDSGAQVRERLALGFGSSSFRYAAPAGRNWTTADLAGMRIATAYPNLVRKDLATKGIEATVIRLDGAVEISVQLGVADAIADVVGSGRTLSQHDLVAFGEPLCDSEAVLIERAGTDGQDQTEARDQLVARVQGVVFGQQYLMLDYDCPRSALKKATAITPGLESPTIAPLADPDWVAIRALVPRRDVNGIMDELAAIGAKAILASDIRFCRF
notes: also called ATP-PRT; HisG
Crystal structure
  stoichiometry N: 6
